# Organism: Rattus norvegicus
# Test: DrugMatrix - Regimen: Daily Repeat
# Assay type: toxicity, organism-based, Sprague-Dawley
# Parameters: regimen Daily Repeat, gender Male, age 6-8 weeks
# Conditions: in vivo, po, 16 mg/kg, route oral GAVAGE, dose level Low, […]; for ABSOLUTE BASOPHIL / ABSOLUTE EOSINOPHIL / ABSOLUTE LYMPHOCYTE / ABSOLUTE MONOCYTE / ABSOLUTE SEGMENTED NEUTROPHIL / BASOPHIL / EOSINOPHIL / ERYTHROCYTE COUNT / HEMATOCRIT / HEMOGLOBIN / LEUKOCYTE COUNT / LYMPHOCYTE / MEAN CORPUSCULAR HEMOGLOBIN / MEAN CORPUSCULAR HEMOGLOBIN CONCENTRATION / MEAN CORPUSCULAR VOLUME / MONOCYTE / NEUTROPHIL / NUCLEATED RED BLOOD CELLS / PLATELET COUNT: tissue Blood; for ALANINE AMINOTRANSFERASE / ALBUMIN / ALKALINE PHOSPHATASE / ASPARTATE AMINOTRANSFERASE / BLOOD UREA NITROGEN / CARBON DIOXIDE / CHLORIDE / CHOLESTEROL / CREATINE PHOSPHOKINASE / CREATININE / GLUCOSE / LACTATE DEHYDROGENASE / LIPASE / PHOSPHORUS / POTASSIUM / SODIUM / TOTAL BILIRUBIN / TOTAL PROTEIN / URIC ACID: tissue Plasma
smiles,measurement,setting,value
O=C(O)c1cc(-c2ccc(F)cc2F)ccc1O [DIFLUNISAL],ABSOLUTE BASOPHIL,"72 h, time 3 day",0 CELLS/uL
same,ABSOLUTE EOSINOPHIL,"72 h, time 3 day",52.33 CELLS/uL
same,ABSOLUTE LYMPHOCYTE,"72 h, time 3 day",12636.67 CELLS/uL
same,ABSOLUTE MONOCYTE,"72 h, time 3 day",104.67 CELLS/uL
same,ABSOLUTE SEGMENTED NEUTROPHIL,"72 h, time 3 day",1073 CELLS/uL
same,BASOPHIL,"72 h, time 3 day",0%
same,EOSINOPHIL,"72 h, time 3 day",0.33%
same,ERYTHROCYTE COUNT,"72 h, time 3 day",5.44 x10E6/uL
same,HEMATOCRIT,"72 h, time 3 day",33.4%
same,HEMOGLOBIN,"72 h, time 3 day",13.27 G/DL
same,LEUKOCYTE COUNT,"72 h, time 3 day",13.87 x10E3/uL
same,LYMPHOCYTE,"72 h, time 3 day",91.33%
same,MEAN CORPUSCULAR HEMOGLOBIN,"72 h, time 3 day",24.4 pg
same,MEAN CORPUSCULAR HEMOGLOBIN CONCENTRATION,"72 h, time 3 day",39.73 G/DL
same,MEAN CORPUSCULAR VOLUME,"72 h, time 3 day",61.47 fL
same,MONOCYTE,"72 h, time 3 day",0.67%
same,NEUTROPHIL,"72 h, time 3 day",7.67%
same,NUCLEATED RED BLOOD CELLS,"72 h, time 3 day",0 /100WBC
same,PLATELET COUNT,"72 h, time 3 day",1096.67 x10E3/uL
same,ALANINE AMINOTRANSFERASE,"72 h, time 3 day",65.33 u/L
same,ALBUMIN,"72 h, time 3 day",3.77 G/DL
same,ALKALINE PHOSPHATASE,"72 h, time 3 day",396.67 u/L
same,ASPARTATE AMINOTRANSFERASE,"72 h, time 3 day",93.33 u/L
same,BLOOD UREA NITROGEN,"72 h, time 3 day",10.67 mg/dL
same,CARBON DIOXIDE,"72 h, time 3 day",29.67 mmol/L
same,CHLORIDE,"72 h, time 3 day",100 MEQ/L
same,CHOLESTEROL,"72 h, time 3 day",80.67 mg/dL
same,CREATINE PHOSPHOKINASE,"72 h, time 3 day",405 u/L
same,CREATININE,"72 h, time 3 day",0.14 mg/dL
same,GLUCOSE,"72 h, time 3 day",166.67 mg/dL
same,LACTATE DEHYDROGENASE,"72 h, time 3 day",130 u/L
same,LIPASE,"72 h, time 3 day",11.33 u/L
same,PHOSPHORUS,"72 h, time 3 day",11.43 mg/dL
same,POTASSIUM,"72 h, time 3 day",6.17 MEQ/L
same,SODIUM,"72 h, time 3 day",141.97 MEQ/L
same,TOTAL BILIRUBIN,"72 h, time 3 day",0.13 mg/dL
same,TOTAL PROTEIN,"72 h, time 3 day",5.47 G/DL
same,URIC ACID,"72 h, time 3 day",1.53 mg/dL
same,ABSOLUTE BASOPHIL,"120 h, time 5 day",0 CELLS/uL
same,ABSOLUTE EOSINOPHIL,"120 h, time 5 day",84.67 CELLS/uL
same,ABSOLUTE LYMPHOCYTE,"120 h, time 5 day",10265 CELLS/uL
same,ABSOLUTE MONOCYTE,"120 h, time 5 day",157.67 CELLS/uL
same,ABSOLUTE SEGMENTED NEUTROPHIL,"120 h, time 5 day",1026 CELLS/uL
same,BASOPHIL,"120 h, time 5 day",0%
same,EOSINOPHIL,"120 h, time 5 day",0.67%
same,ERYTHROCYTE COUNT,"120 h, time 5 day",5.28 x10E6/uL
same,HEMATOCRIT,"120 h, time 5 day",33.5%
same,HEMOGLOBIN,"120 h, time 5 day",13.6 G/DL
same,LEUKOCYTE COUNT,"120 h, time 5 day",11.53 x10E3/uL
same,LYMPHOCYTE,"120 h, time 5 day",89%
same,MEAN CORPUSCULAR HEMOGLOBIN,"120 h, time 5 day",25.73 pg
same,MEAN CORPUSCULAR HEMOGLOBIN CONCENTRATION,"120 h, time 5 day",40.63 G/DL
same,MEAN CORPUSCULAR VOLUME,"120 h, time 5 day",63.37 fL
same,MONOCYTE,"120 h, time 5 day",1.33%
same,NEUTROPHIL,"120 h, time 5 day",9%
same,NUCLEATED RED BLOOD CELLS,"120 h, time 5 day",0.33 /100WBC
same,PLATELET COUNT,"120 h, time 5 day",1107.33 x10E3/uL
same,ALANINE AMINOTRANSFERASE,"120 h, time 5 day",56 u/L
same,ALBUMIN,"120 h, time 5 day",4.13 G/DL
same,ALKALINE PHOSPHATASE,"120 h, time 5 day",404.33 u/L
same,ASPARTATE AMINOTRANSFERASE,"120 h, time 5 day",84.33 u/L
same,BLOOD UREA NITROGEN,"120 h, time 5 day",16 mg/dL
same,CARBON DIOXIDE,"120 h, time 5 day",25.33 mmol/L
same,CHLORIDE,"120 h, time 5 day",102.33 MEQ/L
same,CHOLESTEROL,"120 h, time 5 day",68.67 mg/dL
same,CREATINE PHOSPHOKINASE,"120 h, time 5 day",379.67 u/L
same,CREATININE,"120 h, time 5 day",0.23 mg/dL
same,GLUCOSE,"120 h, time 5 day",159.33 mg/dL
same,LACTATE DEHYDROGENASE,"120 h, time 5 day",227 u/L
same,LIPASE,"120 h, time 5 day",11.67 u/L
same,PHOSPHORUS,"120 h, time 5 day",11.33 mg/dL
same,POTASSIUM,"120 h, time 5 day",6.39 MEQ/L
same,SODIUM,"120 h, time 5 day",143.53 MEQ/L
same,TOTAL BILIRUBIN,"120 h, time 5 day",0.17 mg/dL
same,TOTAL PROTEIN,"120 h, time 5 day",5.47 G/DL
same,URIC ACID,"120 h, time 5 day",1.67 mg/dL

# Source: ChEMBL document CHEMBL3885881, “DrugMatrix”
